From US9186390B2, “Methods and uses of TIE2 binding and/or activating agents” (Sunnybrook Health Sciences Center, priority 2010, dated 2015) come the findings set out here.

Series [1] can be described thus: Vasculotide-specific ELISA of circulating Vasculotide in mouse plasma. Type of series: in vivo, CD1 mice. The conditions noted are these: for circulating level in plasma after oral delivery: 2 μg P.O. (gavage). From the text: Several monoclonal antibodies have been raised against the modified T7 peptide. These antibodies have been extensively validated and used to develop an ELISA which is capable of measuring picogram quantities of Vasculotide in mouse plasma or serum. There is an excellent linear relationship between ELISA signal and Vasculotide concentration with little interference from mouse plasma/serum proteins (FIG. 1C).
The developed ELISA was used to track circulating levels of Vasculotide in the plasma of mice over time. […] The incongruence of these findings is likely due to a paucity of sensitivity in the ELISA-based detection of Vasculotide.

The next series relates to chronic asthma mice. Put plainly: Chronic asthma model (ovalbumin sensitization, nebulized challenge, d42 / d62). In kind it is in vivo, Balb/c mice. On the procedure:
(Chronic asthma model) Seven week old female Balb/c mice were injected intraperitoneally (IP) with 20 μg of chicken ovalbumin (OVA) absorbed with 1 mg aluminum hydroxide, an adjuvant known to promote the development of a Th2 response by the immune system, on day 0 (denoted by first day injection) and day 7. Full body inhaled exposure to OVA was initiated at day 21. Briefly, these treatments utilized an InExpose full body aerosol chamber (Scireq, Montreal, Canada) where a 1% OVA solution, suspended in PBS, pH 7.45, was nebulized at 0.2 mL/min with a filtered room air flow rate of 2400 mL/min for a total period of 30 minutes, 3 times a week for either 42 (FIG. 13A) or 62 days (FIG. 13B). (Acute asthma model) Seven week old female Balb/c mice were injected intraperitoneally with 50 μg of chicken OVA absorbed with 1 mg aluminum hydroxide on day 0 (denoted by first day injection) and day 7. Aqueous OVA ([…] in PBS) was delivered intranasally daily from day 20 to day 24 (FIG. 2), Vasculotide or saline vehicle (control, PBS) was delivered to the mice via IP injections.
Blood was collected from the left ventricle of anaesthetized mice into heparinized 1 cc syringes. Following collection, blood was placed into Li-heparin microtubes. Subsequently, the tubes were centrifuged at 3000 RPM for 15 minutes at 4° C. Plasma was collected from the top of the samples and frozen at −80° C. for later analysis. The remaining buffy coat and red blood cells were lysed then fixed in 1× lyse/fix buffer (BD Biosciences, Mississauga, Canada) according to manufacturer's instructions.
Twenty-four hours after last aerosol exposure and immediately following exsanguinations, tissue was dissected from neck to expose trachea. A small lateral incision was made in the trachea to allow passage of 23 gauge lavage catheter into trachea. The catheter, attached to a 3 cc syringe containing warmed Hanks buffer, was carefully passed into the lumen of the trachea. A suture was secured around the trachea with a knot to secure the catheter in place. Buffer (1 cc) was injected slowly into the lungs and fully aspirated three times. The volume of recovered buffer was recorded for each animal to facilitate calculation of BAL infiltrate.
Analysis of plasma samples generated for the asthma study was the same as that outlined for the atopic dermatitis study with one small modification. Plasma from mice used in the asthma study was diluted 1:4 instead of 1:8 for the atopic dermatitis samples.
(BAL analysis) Collected BAL fluid was centrifuged at 1000 RPM for 10 minutes at 4° C. BAL fluid was removed and collected for subsequent CBA analysis. The BAL cell pellet was lysed/fixed in 1× lyse/fix buffer according to manufacturer's instructions (BD Biosciences, Mississauga, Canada). The total number of cells contained in each sample was determined by flow cytometry using flow-set beads (Count Bright Beads, Invitrogen), to facilitate sample volume and cell count calculations. A total of 7000 beads were counted for each sample. Flow cytometry analysis was gated on FSC/SSC to eliminate debris and dead cells. Differential cell count analysis was also performed by FACS where surface marker antibodies were used as follows: eosinophils (SSC^hi FITCmed Ige^med), neutrophils (SSC^med FITC^hi Ige^med), monocytes (SSC^med CD11b^+ CD115^+) and lymphocytes (SSC^lo and CD4^+ or CD8^+). In addition to monocyte markers (SSC^med CD11b^+ CD115^+), these cell populations were further characterized using antibodies specific for Tie2, TLR4, and Ly6C. Ly6C^low and Ly6C^high further define monocytes as classical, resident monocytes or inflammatory monocytes, respectively. Identified neutrophils were further labelled with antibodies to Tie2 and TLR4. All cell suspensions were incubated with purified anti-CD16/CD32 mAb (BD Biosciences, Mississauga, ON, Canada) to block non-specific background caused by Fc receptors, followed by incubation with the specific antibodies. […]

Where [2] appears, read: chronic asthma, sustained effect.

Entries after “also recorded” stand apart in the source; their conditions may differ.

In the case of “Vasculotide: Modified T7 peptide (CHHHRHSF, SEQ ID NO:2) conjugated to 10 kDa tetrameric polyethylene glycol-maleimide; Tie2 binding peptide mimetic”, in series [1] (2 μg I.P., p=0.0149 PBS vs Vasc), the “time up to which significant levels of circulating Vasculotide are detected by ELISA” value is recorded as “up to 24 hours”. For the same substance, the “circulating level in plasma after oral delivery” value in series [1] is on record as “no significant levels”; in series [1] (listed as Vasc-PEG) it was “did not result in any detectable levels”. Also, in series [1] (I.P., unpaired student t-test vs PBS), the “circulating level in plasma at 24 hours post injection” value is given as “statistically detectable level”. Further, the “Tie2 levels in BAL neutrophils” value with chronic asthma mice (asthmatic mice, flow cytometry) is reported as “unchanged”. The BAL neutrophil count result in the series with chronic asthma mice (chronic asthma, d42) was “unchanged”; in the series on chronic asthma mice (chronic asthma, d62) it was “slight increase”; in the series on chronic asthma mice (chronic asthma, d62, listed as Vsaculotide), “very small increase”. Besides, in the series on chronic asthma mice (chronic asthma, d42 and d62), the BAL eosinophil numbers entry is given as “significantly decreased; also recorded: statistical reduction”. Besides, the “BAL monocyte infiltration / absolute number of monocytes” value in the series with chronic asthma mice (chronic asthma, d42 and d62) is given as “significantly decreased; also recorded: statistical reduction”. The “inflammatory monocytes (Ly6C+) in BAL” value in the series with chronic asthma mice (chronic asthma, d42 and d62) was “decreased”. Moreover, the “absolute number of peripheral blood mononuclear cells” value with chronic asthma mice (chronic asthma, d42 or d62, did not reach significance) is reported as “clear trend toward a reduction”. Further, the BAL lymphocytes entry in the series on chronic asthma mice (chronic asthma, day 42 and day 62) is “statistical reduction”. The “plasma IL-5 (cytometric bead array)” value in the series on chronic asthma mice (setting [2]) is “decreasing”. The “plasma RANTES (cytometric bead array)” value with chronic asthma mice (setting [2]) is “decreasing”. For the same substance, the “plasma TNF (cytometric bead array)” value in the series on chronic asthma mice (setting [2]) is “decreasing”. The “reduction of total absolute BAL counts” value in the series on chronic asthma mice (d42 chronic asthma model, systemic (IP) treatment, flow cytometry) was determined as 45%. The “TLR4 expression on BAL eosinophils (mean fluorescence intensity)” value in the series with chronic asthma mice (d42 chronic asthma, PBS 166) is 758 MFI; in the series with chronic asthma mice (d62 chronic asthma, PBS 118), 132 MFI. Also, the “cell surface level of Tie2 on BAL eosinophils (mean fluorescence intensity)” value in the series on chronic asthma mice (d42 chronic asthma, PBS 566) is 205 MFI. For the same substance, in the series on chronic asthma mice (d62 chronic asthma, vs PBS), the “decrease in lung collagen deposition (Masson's trichrome, % blue positive area)” value stood at 4 fold.
